Where two headings read alike, the source gives them in different places. *1 amine or outer side, *2 acyl side, *3 side chain or, on linkers, in order; H or OH if unused. Where a SMILES comes first, the peptide text is derived from it. Bridges are numbered along the chain shown (N, C = ends). [ ]: non-standard residue; d: D form. The star is where a group is joined. X52 = CN1C[C@@H]2C[C@H]1CN2c1ccc(-c2ccc(Cl)cc2C[C@@H](C(=O)[*:2])N(C)[*:1])cc1; NMePhe(2-(4-MorPh),5-Cl) = CN[C@@H](Cc1cc(Cl)ccc1-c1ccc(N2CCOCC2)cc1)C(=O)O; X21 = CN([C@@H](Cc1cc(Cl)ccc1-c1ccc(N2CCN3CCOC[C@H]3C2)cc1)C(=O)[*:2])[*:1]; X50 = CN([C@@H](Cc1cc(Cl)ccc1-c1ccc(N2CCN(C3COC3)CC2)cc1)C(=O)[*:2])[*:1]; X70 = CN1CCC[C@@H](c2ccc(-c3ccc(Cl)cc3C[C@@H](C(=O)[*:2])N(C)[*:1])cc2)C1; X95 = CN1CCCC[C@H]1c1ccc(-c2ccc(Cl)cc2C[C@@H](C(=O)[*:2])N(C)[*:1])cc1; X115 = CN([C@@H](Cc1cc(Cl)ccc1-c1ccc(N2CCNCC2)cc1)C(=O)[*:2])[*:1]; X6 = CN([C@@H](Cc1cc(Cl)ccc1-c1ccc(-c2cccnc2)cc1)C(=O)[*:2])[*:1]; X18 = CC(=O)N1CCC(=Cc2ccc(Cl)cc2C[C@@H](C(=O)[*:2])N(C)[*:1])CC1; X26 = CN([C@@H](Cc1cc(F)ccc1-c1cnn(C2CC2)c1)C(=O)[*:2])[*:1]; NMehhhLys(Me) = CN([C@@H](CCCCCCCN(C)[*:3])C(=O)[*:2])[*:1]; X67 = Cc1c(-c2ccc(Cl)cc2C[C@@H](C(=O)[*:2])N(C)[*:1])cnn1C; X109 = CN([C@@H](Cc1cc(Cl)ccc1-c1ccncc1)C(=O)[*:2])[*:1]; NMe(hhhLys) = CN([C@@H](CCCCCCCN[*:3])C(=O)[*:2])[*:1]; NMe3Pal(2-OMe,5-Cl) = CN[C@@H](Cc1cc(Cl)cnc1OC)C(=O)O; Oxane2carbonyl(2R-CF3) = O=C([C@@]1(C(F)(F)F)CCCCO1)*; cBuCO(3,3-F2-1-CF3) = O=C(C1(C(F)(F)F)CC(F)(F)C1)*; Pro(trans-4-F) = O=C(O)[C@@H]1C[C@@H](F)CN1; Pivaloyl(3,3,3-F3) = CC(C)(C(=O)*)C(F)(F)F; Gly(cPr) = N[C@H](C(=O)O)C1CC1
Tests used:
[1] = biological target: T1, CyclinA2/CDK2 (Homo sapiens, UniProt P20248); assay: Fluorescence Polarization (FP) competitive binding assay, Cyclin A2/Cdk2;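 note: plates equilibrated two hours at room temperature before polarization reading, IC50 fitted from eight-concentration compound titration curves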
T1 construct: purchased CRELUX Protein Services

[2] = biological target: T2, CyclinB1/CDK1 (Homo sapiens, UniProt P14635); assay: Fluorescence Polarization (FP) competitive binding assay, Cyclin B1/Cdk1;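 note: fluorescence polarization read after equilibration at room temperature, with IC50 taken from serially diluted dose-response curves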
T2 construct: purchased Eurofins, discovery 14-450

[3] = biological target: T3, CyclinE1/CDK2 (Homo sapiens, UniProt P24864); assay: Fluorescence Polarization (FP) competitive binding assay, Cyclin E1/Cdk2;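 note: readings taken after two-hour equilibration at room temperature in HEPES buffer with NaCl, DTT, NP-40 and BSA, IC50 fitted from eight-concentration serial dilution series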
T3 construct: purchased Eurofins, discovery 14-475

[4] = system: WI-38 cells; assay: MTT proliferation assay, WI-38; assay type: cell-based; settings: 3 days compound exposure, 1:3 serial dilution starting at 10 μM;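 note: Eight- or ten-point dilution series, with exposure length chosen to span about three to four cell doublings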
[5] = system: NCI-H1048 cells; assay: MTT proliferation assay, NCI-H1048; assay type: cell-based; settings: 5 days compound exposure, 1:3 serial dilution starting at 10 μM;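 note: Dose-response in 96-well plates over 8 or 10 concentration points, with exposure spanning 3-4 cell doublings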
[6] = system: OVCAR3 cells; assay: MTT proliferation assay, OVCAR3; assay type: cell-based; settings: 5 days compound exposure, 1:3 serial dilution starting at 10 μM;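 note: compound given as an 8- or 10-point series, one day after plating, with exposure covering roughly 3-4 cell doublings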
[7] = 8 nM Cyclin A2/Cdk2, 2 nM FAM probe, average of 2-3 independent experiments, read-out: Cyclin A FP IC50
[8] = 10 nM Cyclin B1/Cdk1, 2 nM FAM probe; average of 2-3 independent experiments; read-out: Cyclin B FP IC50
[9] = 10 nM Cyclin E1/Cdk2, 2 nM FAM probe, average of 2-3 independent experiments, read-out: Cyclin E FP IC50

Row | Structure (SMILES) | IC50 [1, 7] [nM] | IC50 [2, 8] [nM] | IC50 [3, 9] [nM] | GI50 [4] [nM] | GI50 [5] [nM] | GI50 [6] [nM] | IC50 [1] [nM] | IC50 ([2]; read-out: Cyclin B FP IC50; 10 nM Cyclin B1/Cdk1, 2 nM FAM probe; average of 2-3 independent experiments) [nM] | IC50 [3] [nM]
1 | CC(C)C[C@@H]1NC(=O)[C@@H](N(C)C(=O)[C@@H](NC(=O)[C@@H]2C[C@@H](F)CN2C(=O)C2(C(F)(F)F)CC(F)(F)C2)C2CC2)CCCCCCCN(C)C(=O)[C@H](Cc2cc(Cl)ccc2-c2ccc(N3CCN4CCOC[C@H]4C3)cc2)N(C)C1=O [Example 364] ({cBuCO(3,3-F2-1-CF3)}-[Pro(trans-4-F)][Gly(cPr)][NMehhhLys(Me)]L[X21]; lactam 3-C) | 20 | 20 | 430 | 3250 | 10 | 10 | – | – | –
2 | CC(C)C[C@@H]1NC(=O)[C@@H](N(C)C(=O)[C@@H](NC(=O)[C@@H]2C[C@@H](F)CN2C(=O)C2(C(F)(F)F)CC(F)(F)C2)C2CC2)CCCCCCCN(C)C(=O)[C@H](Cc2cc(Cl)ccc2-c2ccncc2)N(C)C1=O [Example 192] ({cBuCO(3,3-F2-1-CF3)}-[Pro(trans-4-F)][Gly(cPr)][NMehhhLys(Me)]L[X109]; lactam 3-C) | 20 | 20 | 1140 | 3510 | 20 | 20 | – | – | –
3 | CC(C)C[C@@H]1NC(=O)[C@@H](N(C)C(=O)[C@@H](NC(=O)[C@@H]2C[C@@H](F)CN2C(=O)C2(C(F)(F)F)CC(F)(F)C2)C2CC2)CCCCCCCN(C)C(=O)[C@H](Cc2cc(Cl)ccc2-c2ccc(N3C[C@@H]4C[C@H]3CN4C)cc2)N(C)C1=O [Example 357] ({cBuCO(3,3-F2-1-CF3)}-[Pro(trans-4-F)][Gly(cPr)][NMehhhLys(Me)]L[X52]; lactam 3-C) | 30 | 20 | 1970 | 3140 | 20 | 50 | – | – | –
4 | COc1ncc(Cl)cc1C[C@H]1C(=O)NCCCCCCC[C@H](N(C)C(=O)[C@@H](NC(=O)[C@@H]2C[C@@H](F)CN2C(=O)[C@@]2(C(F)(F)F)CCCCO2)C2CC2)C(=O)N[C@@H](CC(C)C)C(=O)N1C [Example 274] ({Oxane2carbonyl(2R-CF3)}-[Pro(trans-4-F)][Gly(cPr)][NMe(hhhLys)]L[NMe3Pal(2-OMe,5-Cl)]; lactam 3-C) | 30 | 20 | 100 | 10500 | 10 | 10 | – | – | –
5 | CC(=O)N1CC=C(c2ccc(Cl)cc2C[C@H]2C(=O)N(C)CCCCC=CC[C@H](N(C)C(=O)[C@@H](NC(=O)[C@@H]3C[C@@H](F)CN3C(=O)C3(C(F)(F)F)CCC3)C3CC3)C(=O)N[C@@H](CC(C)C)C(=O)N2C)CC1 [Example 36] | 30 | 20 | 820 | 16000 | 110 | 350 | – | – | –
6 | CC(C)C[C@@H]1NC(=O)[C@@H](N(C)C(=O)[C@@H](NC(=O)[C@@H]2C[C@@H](F)CN2C(=O)C(C)(C)C(F)(F)F)C2CC2)CCCCCCCN(C)C(=O)[C@H](Cc2cc(Cl)ccc2-c2ccc(N3CCOCC3)cc2)N(C)C1=O [Example 335] ({Pivaloyl(3,3,3-F3)}-[Pro(trans-4-F)][Gly(cPr)][NMehhhLys(Me)]L[NMePhe(2-(4-MorPh),5-Cl)]; lactam 3-C) | 20 | 20 | 160 | 4750 | 10 | 10 | – | – | –
7 | CC(C)C[C@@H]1NC(=O)[C@@H](N(C)C(=O)[C@@H](NC(=O)[C@@H]2C[C@@H](F)CN2C(=O)C2(C(F)(F)F)CC(F)(F)C2)C2CC2)CCCCCCCN(C)C(=O)[C@H](Cc2cc(Cl)ccc2-c2ccc(N3CCN(C4COC4)CC3)cc2)N(C)C1=O [Example 346] ({cBuCO(3,3-F2-1-CF3)}-[Pro(trans-4-F)][Gly(cPr)][NMehhhLys(Me)]L[X50]; lactam 3-C) | 20 | 20 | 360 | 3680 | 10 | 10 | – | – | –
8 | Cc1c(-c2ccc(Cl)cc2C[C@H]2C(=O)N(C)CCCCCCC[C@H](N(C)C(=O)[C@@H](NC(=O)[C@@H]3C[C@@H](F)CN3C(=O)C3(C(F)(F)F)CC(F)(F)C3)C3CC3)C(=O)N[C@@H](CC(C)C)C(=O)N2C)cnn1C [Example 234] ({cBuCO(3,3-F2-1-CF3)}-[Pro(trans-4-F)][Gly(cPr)][NMehhhLys(Me)]L[X67]; lactam 3-C) | – | – | – | 10700 | 10 | 10 | 30 | 20 | 830
9 | CC(C)C[C@@H]1NC(=O)[C@@H](N(C)C(=O)[C@@H](NC(=O)[C@@H]2C[C@@H](F)CN2C(=O)C2(C(F)(F)F)CC(F)(F)C2)C2CC2)CCCCCCCN(C)C(=O)[C@H](Cc2cc(Cl)ccc2-c2ccc([C@@H]3CCCN(C)C3)cc2)N(C)C1=O [Example 411] ({cBuCO(3,3-F2-1-CF3)}-[Pro(trans-4-F)][Gly(cPr)][NMehhhLys(Me)]L[X70]; lactam 3-C) | 20 | 20 | 760 | 1610 | 10 | 10 | – | – | –
10 | CC(C)C[C@@H]1NC(=O)[C@@H](N(C)C(=O)[C@@H](NC(=O)[C@@H]2C[C@@H](F)CN2C(=O)C2(C(F)(F)F)CC(F)(F)C2)C2CC2)CC=CCCCCNC(=O)[C@H](Cc2cc(Cl)ccc2-c2cnn(C3COC3)c2)N(C)C1=O [Example 27] | 90 | 20 | 1900 | 11400 | 90 | 370 | – | – | –
11 | CC(C)C[C@@H]1NC(=O)[C@@H](N(C)C(=O)[C@@H](NC(=O)[C@@H]2C[C@@H](F)CN2C(=O)C2(C(F)(F)F)CC(F)(F)C2)C2CC2)CCCCCCCN(C)C(=O)[C@H](Cc2cc(Cl)ccc2-c2ccc(N3CCNCC3)cc2)N(C)C1=O [Example 341] ({cBuCO(3,3-F2-1-CF3)}-[Pro(trans-4-F)][Gly(cPr)][NMehhhLys(Me)]L[X115]; lactam 3-C) | 20 | 20 | 510 | 2440 | 10 | 10 | – | – | –
12 | CC(C)C[C@@H]1NC(=O)[C@@H](N(C)C(=O)[C@@H](NC(=O)[C@@H]2C[C@@H](F)CN2C(=O)[C@@]2(C(F)(F)F)CCCCO2)C2CC2)CCCCCCCN(C)C(=O)[C@H](Cc2cc(F)ccc2-c2cnn(C3CC3)c2)N(C)C1=O [Example 147] ({Oxane2carbonyl(2R-CF3)}-[Pro(trans-4-F)][Gly(cPr)][NMehhhLys(Me)]L[X26]; lactam 3-C) | 20 | 20 | 100 | 1240 | 10 | 10 | – | – | –
13 | CC(C)C[C@@H]1NC(=O)[C@@H](N(C)C(=O)[C@@H](NC(=O)[C@@H]2C[C@@H](F)CN2C(=O)C2(C(F)(F)F)CC(F)(F)C2)C2CC2)CC=CCCCCNC(=O)[C@H](Cc2cc(Cl)ccc2-c2cnn(C)c2)N(C)C1=O [Example 26] | 60 | 20 | 1170 | 8740 | 110 | 170 | – | – | –
14 | CC(C)C[C@@H]1NC(=O)[C@@H](N(C)C(=O)[C@@H](NC(=O)[C@@H]2C[C@@H](F)CN2C(=O)C2(C(F)(F)F)CC(F)(F)C2)C2CC2)CCCCCCCN(C)C(=O)[C@H](Cc2cc(Cl)ccc2-c2ccc([C@@H]3CCCCN3C)cc2)N(C)C1=O [Example 417] ({cBuCO(3,3-F2-1-CF3)}-[Pro(trans-4-F)][Gly(cPr)][NMehhhLys(Me)]L[X95]; lactam 3-C) | 30 | 20 | 2650 | 1160 | 10 | 10 | – | – | –
15 | CC(C)C[C@@H]1NC(=O)[C@@H](N(C)C(=O)[C@@H](NC(=O)[C@@H]2C[C@@H](F)CN2C(=O)C2(C(F)(F)F)CC(F)(F)C2)C2CC2)CCCCCCN(C)C(=O)[C@H](Cc2cc(Cl)ccc2-c2cnn(C)c2)N(C)C1=O [Example 72] | 30 | 20 | 1050 | 14900 | 40 | 60 | – | – | –
16 | CC(=O)N1CCC(=Cc2ccc(Cl)cc2C[C@H]2C(=O)N(C)CCCCCCC[C@H](N(C)C(=O)[C@@H](NC(=O)[C@@H]3C[C@@H](F)CN3C(=O)C3(C(F)(F)F)CC(F)(F)C3)C3CC3)C(=O)N[C@@H](CC(C)C)C(=O)N2C)CC1 [Example 289] ({cBuCO(3,3-F2-1-CF3)}-[Pro(trans-4-F)][Gly(cPr)][NMehhhLys(Me)]L[X18]; lactam 3-C) | 30 | 20 | 320 | 3780 | 10 | 10 | – | – | –
17 | CC(C)C[C@@H]1NC(=O)[C@@H](N(C)C(=O)[C@@H](NC(=O)[C@@H]2C[C@@H](F)CN2C(=O)C2(C(F)(F)F)CC(F)(F)C2)C2CC2)CCCCCCCN(C)C(=O)[C@H](Cc2cc(Cl)ccc2-c2ccc(-c3cccnc3)cc2)N(C)C1=O [Example 375] ({cBuCO(3,3-F2-1-CF3)}-[Pro(trans-4-F)][Gly(cPr)][NMehhhLys(Me)]L[X6]; lactam 3-C) | 20 | 20 | 1730 | 16800 | 10 | 20 | – | – | –
18 | CC(C)C[C@@H]1NC(=O)[C@@H](N(C)C(=O)[C@@H](NC(=O)[C@@H]2C[C@@H](F)CN2C(=O)C2(C(F)(F)F)CCC2)C2CC2)CC=CCCCCNC(=O)[C@H](Cc2cc(Cl)ccc2-c2cnn(C3COC3)c2)N(C)C1=O [Example 32] | 50 | 20 | 590 | 11800 | 140 | 250 | – | – | –

Source: patent US20240408169A1 (priority 2023, published 2024)
